Experimental data as given in PubChem BioAssay (NCI).
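Compound exposure: 48 hours, 5 concentrations, 96-well plates. TGI: total growth inhibition.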 Where a SMILES comes first, the peptide text is derived from it. [ ]: non-standard residue; d: D form. The star is where a group is joined. ξ: configuration not given here. ξD = NC(CC(=O)O)C(=O)O; Ac3c = NC1(C(=O)O)CC1; Boc = CC(C)(C)OC(=O)*; OBn = c1ccc(CO*)cc1

Assays:
Assay in all cases: growth of human tumour cells (NCI), 48 h
MDA-N = system: MDA-N
TK-10 renal = system: TK-10 renal
PC-3 prostate = system: PC-3 prostate
MALME-3M melanoma = system: MALME-3M melanoma
SN12C renal = system: SN12C renal
MCF7 breast = system: MCF7 breast
OVCAR-8 ovarian = system: OVCAR-8 ovarian
IGROV1 ovarian = system: IGROV1 ovarian
KM12 colon = system: KM12 colon
RXF 393 renal = system: RXF 393 renal

Compound	TGI (MDA-N)	TGI (TK-10 renal)	TGI (PC-3 prostate)	TGI (MALME-3M melanoma)	TGI (SN12C renal)	TGI (MCF7 breast)	TGI (OVCAR-8 ovarian)	TGI (IGROV1 ovarian)	TGI (KM12 colon)	TGI (RXF 393 renal)
O=c1[nH]c2ccccc2nc1/C=C(\O)C(F)F	> 100 µM	> 100 µM	> 100 µM	> 100 µM	> 100 µM	> 100 µM	> 100 µM	> 100 µM	> 100 µM	> 100 µM
CC(NC1=NCCO1)c1cccc([N+](=O)[O-])c1 (stereo not given)	> 100 µM	> 100 µM	> 100 µM	> 100 µM	> 100 µM	> 100 µM	> 100 µM	> 100 µM	> 100 µM	> 100 µM
COc1ccc(/C=C(\C(=C/c2ccc(OC)cc2)[N+](=O)[O-])[N+](=O)[O-])cc1	8.89 µM	12.2 µM	> 39.7 µM	11.9 µM	10.1 µM	27.3 µM	5.97 µM	15.4 µM	36.2 µM	4.33 µM
COC(=O)c1ccc(CCc2cc(O)ccc2O)cc1	20.5 µM	45.8 µM	17.5 µM	22.5 µM	29.3 µM	> 62.2 µM	> 52.7 µM	23.8 µM	27.5 µM	20.9 µM
O=C(c1ccccc1)c1c(C(F)(F)F)n([O-])c2cc(Cl)c(Cl)cc2[n+]1=O	4.17 µM	2.56 µM	4.03 µM	5.33 µM	1.87 µM	1.24 µM	20.9 µM	0.984 µM	1.08 µM	5.52 µM
Cc1cc(=O)n2nc(CSc3nnc(N)s3)sc2n1	> 100 µM	> 100 µM	> 100 µM	> 100 µM	> 100 µM	> 100 µM	> 100 µM	> 100 µM	> 100 µM	> 100 µM
NCCNCCCCCCNC(=O)c1cccc2cc3ccccc3nc12	7.13 µM	20.8 µM	8.79 µM	7.92 µM	7.8 µM	5.39 µM	5.27 µM	17.2 µM	4.93 µM	9.68 µM
Cc1ccc(-n2c(O)c3c(N)n[nH]c3c(C#N)c2=O)cc1	> 100 µM	> 100 µM	> 100 µM	> 100 µM	> 100 µM	> 100 µM	> 100 µM	> 100 µM	> 100 µM	> 100 µM
COC(=O)C1(NC(=O)C(CC(=O)OCc2ccccc2)NC(=O)OC(C)(C)C)CC1 (stereo not given) (Boc-[ξD](OBn)-[Ac3c]-OMe)	> 100 µM	> 100 µM	> 100 µM	> 100 µM	> 100 µM	> 100 µM	> 100 µM	> 100 µM	> 100 µM	> 100 µM
CCOC(=O)C1=C(C)C(C(=O)OC)/C(=C/c2cccc3cccnc23)C1=O (stereo not given)	> 10 µM	> 10 µM	> 10 µM	> 10 µM	> 10 µM	> 10 µM	> 10 µM	> 10 µM	> 10 µM	> 10 µM
Cc1ccc(C)c(COCCOCn2cc(Br)c(N)nc2=O)c1	> 100 µM	> 100 µM	> 100 µM	> 100 µM	> 100 µM	> 100 µM	> 100 µM	> 100 µM	> 100 µM	> 100 µM
CCOC(=O)C(NC(=O)CC(C)C)(Nc1ccc(C(F)(F)F)cc1)C(F)(F)F (stereo not given)	> 100 µM	> 100 µM	> 100 µM	> 100 µM	> 100 µM	> 100 µM	> 100 µM	> 100 µM	55.6 µM	> 100 µM
Cc1cc(NS(=O)(=O)c2ccc(NC(=O)c3cccc4c(NNc5ccc(S(=O)(=O)N=C(N)N)cc5)c5ccccc5nc34)cc2)no1	> 100 µM	> 100 µM	> 100 µM	> 100 µM	> 100 µM	> 100 µM	> 100 µM	> 100 µM	> 100 µM	> 100 µM
N#CC(C#N)=Cc1c(O)ccc2ccccc12	30.5 µM	32.2 µM	33.6 µM	39.8 µM	27.3 µM	34.3 µM	36.4 µM	39.4 µM	33.3 µM	31.2 µM
O=C(Nc1nnc(-c2ccccc2)o1)C(SC(=S)N1CCOCC1)c1ccccc1 (stereo not given)	> 100 µM	> 100 µM	> 100 µM	> 100 µM	> 100 µM	> 100 µM	> 100 µM	> 100 µM	> 100 µM	> 100 µM
